1 molecule from US6551774B1, “Diagnostic methods for conditions associated with elevated cellular levels of telomerase activity” (Board of Regents, The University of Texas System, priority 1992, dated 2003) can be followed below.

Series [1] deals with Tetrahymena cells. Description: Single-cell transfer cultures of Tetrahymena with AZT or Ara-G. It is filed as cell-based, Tetrahymena thermophila. As to the method: For analysis of vegetative growth and macronuclear DNA from single-cell cultures containing the nucleoside analogs AZT or Ara-G, SB210 (VI) cells were grown from stationary stock cultures overnight at 30° C. with shaking (100 rpm) in 50 ml 2% PPYS or Isobroth. Cells were counted and added to the appropriate medium plus analog (Ara-G to 1 mM or DMSO to 1% as control in 2% PPYS; AZT to 10 μm or 1 mM, or no addition as control in Isobroth) and plated in 96-well plates (Falcon), 100 μl per well at a density of 1 cell per well. 5 plates were prepared for each analog or control. Wells were scored for cell growth and plates were replica plated every 1-2 days (Ara-G and DMSO plates) or every 2-4 days (AZT and Isobroth control plates) to maintain approximate inoculation densities of 1-10 cells per well for each passage. Occasionally individual wells were passaged by hand (1 μl inoculated per well using a pipettor) into several blank wells, to expand the number of live wells per plate as single-cell cultures were lost over time due to low probability of being transferred at each passage. After passaging, cells were pooled, pelleted and stored at −80° C. until processed for DNA analysis.
To test whether we had missed such a subpopulation of cells, we carried out the same experiments on vegetatively dividing Tetrahymena cells in the presence and absence of drug, but in these experiments the subculturing was carried out by plating cells at an average of 1 to 10 cells per well in microtiter plate wells in the presence of 10 μM and 1 mM AZT, and 10 μM and 1 mM Ara-G. For each drug, cells were plated out in this manner for 30 consecutive days (90 to 150 cell generations) and 16 consecutive days (50 to 80 cell generations) respectively for the 10 μM and 1 mM drug concentrations. DNA was isolated at intervals from combined samplings of the wells for analysis of telomere length.

The subject of series [2] is Tetrahymena cells. Description: Growth, morphology and senescence of Tetrahymena mass-transfer cultures with nucleoside analogs. It counts as cell-based, Tetrahymena thermophila. As to the method: For analysis of macronuclear DNA from cultures containing the nucleoside analog AZT (Sigma), or controls lacking analog, at various timepoints during vegetative divisions, cells from stationary stock cultures were inoculated into 25 ml thymine-deficient Iso-sensitest broth (‘Isobroth’, Oxoid USA) in 250 ml flasks. Cultures were incubated at 30° C. with shaking (100 rpm) for 48 hours. Cells were counted and plated at 1000 cells/1.5 ml in 24-well plates (Falcon) and grown at 30° C., without shaking, for 48 hours. 5 μl of these log phase cells were used to inoculate 1 ml cultures (Isobroth) containing varied concentrations of nucleoside analog. Thereafter, every 2-4 days cells were transferred, either 5 μl per well, or 1-3 μl using a multi-pronged replicator into fresh 1 ml broth containing AZT. Remaining cells were pelleted and stored at −80° C. until processed for DNA analysis.
For analysis of macronuclear DNA from vegetative cultures containing the nucleoside analogs Ara-G (Calbiochem), ddG (Calbiochem), or ddI (Calbiochem), or controls lacking analog, stock cultures were grown overnight in 2% PPYS as described. Cells were counted and plated at 100 cells/2 ml in 2% PPYS containing varied amounts of analog, 1% DMSO (Fisher) (as a control for ddG and Ara-G), or 2% PPYS alone. Cells were replica plated into fresh medium every 2-6 days, and remaining cells were pelleted and stored at −80° C. until processed for DNA analysis.
To test whether such a phenotype could be produced by inhibitors of telomerase in Tetrahymena, duplicate log-phase cultures were grown for prolonged periods in the presence of varying concentrations of analogs. The growth and cell morphology of these cultures were monitored, and DNA was isolated at different times for telomere length analysis. […] From growth rate measurements it was calculated that the cells went through 150 to 250 cell generations in the course of this 50 day period.

Setting [3] is: 1 mM in Isobroth, single cell transfers.

On to `Cc1cn([C@H]2C[C@H](N=[N+]=[N-])[C@@H](CO)O2)c(=O)[nH]c1=O` [AZT], for which, in the series on Tetrahymena cells [1] (10 μM AZT, 10 μM or 1 mM Ara-G, 1 to 10 cells per well), the “plating efficiency compared with control medium” value is “no changes in the plating efficiency”. In the series with Tetrahymena cells [1] (1 mM in Isobroth), the “mean length and size distribution of telomeric DNA of pooled fast cells” value is “indistinguishable from those of control cells grown without AZT”; the “telomeric DNA of pooled slow cells” value is “slight decrease in mean telomere length and heterogeneity”. In the series on Tetrahymena cells [1] (setting [3]), the “growth rate of the fast growth class” value fell in the range of 2 to 4 cell doubling per day and the “growth rate of the slow growth class” value is listed as 0 to 1 cell doubling per day. The “effect on cell growth and survival” value in the series with Tetrahymena cells [2] (5 or 10 mM in Isobroth medium) is “strongly inhibited cell growth and killed cells within a day”. In the series with Tetrahymena cells [2] (up to 1 mM in Isobroth, 50-day continuous growth, ˜10^3 cells per transfer), the senescence of cultures entry is given as “did not result in senescence”.
